Measurements: patent US6355799B1, “Substituted benzene compounds, process for their preparation, and herbicidal and defoliant compositions containing them” (ISK Americas Incorporated, priority 1997, dated 2002)

Tests used:
Assay type in all cases: in vivo
[1] = tested on: common ragweed (Ambrosia artemisizfolia L., AMBEL); assay: Pre-emerge test, greenhouse herbicide activity screening; details: rated 14 days after application, 0 = no damage, 100 = complete death
Outline: (§1)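 Sandy loam pots; pre-emerge: sown 1 d pre-spray, surface-watered after, then bottom-watered. Post-emerge: sown 8–21 d before, 2–3 leaf stage, + 0.25% v/v NIS, bottom-watered. Acetone, 187 l/ha track spray, 15–1000 g ai/ha. 0–100 injury score, day 14.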

[2] = tested on: johnsongrass (Sorghum halepense, SORHA); assay: as above; details: rated 14 days after application, 0 = no damage, 100 = complete death
Outline: as §1

[3] = tested on: ivyleaf morningglory (Ipomoea hederacea, IPOHE); assay: as above; details: rated 14 days after application, 0 = no damage, 100 = complete death
Outline: as §1

[4] = tested on: lambsquarters (Chenopodium album, CHEAL); assay: as above; details: rated 14 days after application, 0 = no damage, 100 = complete death
Outline: as §1

[5] = tested on: sicklepod (Cassia obtusifolia, CASOB); assay: as above; details: rated 14 days after application, 0 = no damage, 100 = complete death
Outline: as §1

[6] = tested on: velvetleaf (Abutilon theophrasti, ABUTH); assay: as above; details: rated 14 days after application, 0 = no damage, 100 = complete death
Outline: as §1

[7] = tested on: barnyardgrass (Echinochloa crus-galli, ECHCG); assay: as above; details: rated 14 days after application, 0 = no damage, 100 = complete death
Outline: as §1

[8] = tested on: green foxtail (Setaria viridis, SETVI); assay: as above; details: rated 14 days after application, 0 = no damage, 100 = complete death
Outline: as §1

[9] = tested on: large crabgrass (Digitaria sanguinalis, DIGSA); assay: as above; details: rated 14 days after application, 0 = no damage, 100 = complete death
Outline: as §1

[10] = tested on: upland rice (Oryza sp., var. Tebonnet, RICE); assay: Pre-emerge test, crop safety; details: rated 14 days after application, 0 = no damage, 100 = complete death
Outline: (§2)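 Visual ratings on a 0-100 scale (0 no damage, 100 all plants dead) were taken at 14 days after treatment. Rates of 15-1000 g ai/ha in acetone, 187 l/ha, were sprayed onto soil one day after planting (pre-emerge) or onto 2-3 leaf plants with 0.25% v/v surfactant (post-emerge).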

[11] = tested on: field corn (Zea mays L., var. Dekalb 535, CORN); assay: Pre-emerge test, crop safety; details: rated 14 days after application, 0 = no damage, 100 = complete death
Outline: as §2

[12] = tested on: common ragweed (Ambrosia artemisizfolia L., AMBEL); assay: Post-emerge test, greenhouse herbicide activity screening; details: post-emerge, 14 days after application, rating scale 0-100
Outline: as §1

[13] = tested on: johnsongrass (Sorghum halepense, SORHA); assay: as above; details: post-emerge, 14 days after application, rating scale 0-100
Outline: as §1

[14] = tested on: redroot pigweed (Amaranthus retroflexus, AMARE); assay: as above; details: post-emerge, 14 days after application, rating scale 0-100
Outline: as §1

[15] = tested on: ivyleaf morningglory (Ipomoea hederacea, IPOHE); assay: as above; details: post-emerge, 14 days after application, rating scale 0-100
Outline: as §1

[16] = tested on: lambsquarters (Chenopodium album, CHEAL); assay: as above; details: post-emerge, 14 days after application, rating scale 0-100
Outline: as §1

[17] = tested on: sicklepod (Cassia obtusifolia, CASOB); assay: as above; details: post-emerge, 14 days after application, rating scale 0-100
Outline: as §1

[18] = tested on: velvetleaf (Abutilon theophrasti, ABUTH); assay: as above; details: post-emerge, 14 days after application, rating scale 0-100
Outline: as §1

[19] = tested on: barnyardgrass (Echinochloa crus-galli, ECHCG); assay: as above; details: post-emerge, 14 days after application, rating scale 0-100
Outline: as §1

[20] = tested on: green foxtail (Setaria viridis, SETVI); assay: as above; details: post-emerge, 14 days after application, rating scale 0-100
Outline: as §1

[21] = tested on: large crabgrass (Digitaria sanguinalis, DIGSA); assay: as above; details: post-emerge, 14 days after application, rating scale 0-100
Outline: as §1

[22] = tested on: redroot pigweed (Amaranthus retroflexus, AMARE); assay: Pre-emerge test, greenhouse herbicide activity screening; details: rated 14 days after application, 0 = no damage, 100 = complete death
Outline: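 Compounds in acetone were track-sprayed at 187 l/ha, 15–1000 g ai/ha, onto sandy loam pots. Pre-emerge seeds were sown one day before spraying, with surface watering afterwards. Post-emerge plants were at the 2–3 leaf stage and sprayed with 0.25% v/v non-ionic surfactant. Injury was rated 0–100 at 14 days.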

[23] = tested on: upland rice (Oryza sp., var. Tebonnet, RICE); assay: Post-emerge test, crop safety; details: post-emerge, 14 days after application, rating scale 0-100
Outline: as §1

[24] = tested on: field corn (Zea mays L., var. Dekalb 535, CORN); assay: Post-emerge test, crop safety; details: post-emerge, 14 days after application, rating scale 0-100
Outline: as §1

## COc1c(Cl)cc(F)c(-n2c(=O)cc(C(F)(F)F)n(C)c2=O)c1NC(=O)c1cccc(F)c1F [2-41]
[1]; 63 g ai/ha
  Pre-emerge Herbicidal Activity, phytotoxicity rating (0-100), AMBEL: 100
[1]; 250 g ai/ha
  Pre-emerge Herbicidal Activity, phytotoxicity rating (0-100), AMBEL: 100
[2]; 63 g ai/ha
  Pre-emerge Herbicidal Activity, phytotoxicity rating (0-100), SORHA: 30
[2]; 250 g ai/ha
  Pre-emerge Herbicidal Activity, phytotoxicity rating (0-100), SORHA: 100
[3]; 63 g ai/ha
  Pre-emerge Herbicidal Activity, phytotoxicity rating (0-100), IPOHE: 90
[3]; 250 g ai/ha
  Pre-emerge Herbicidal Activity, phytotoxicity rating (0-100), IPOHE: 100
[4]; 63 g ai/ha
  Pre-emerge Herbicidal Activity, phytotoxicity rating (0-100), CHEAL: 100
[4]; 250 g ai/ha
  Pre-emerge Herbicidal Activity, phytotoxicity rating (0-100), CHEAL: 100
[5]; 63 g ai/ha
  Pre-emerge Herbicidal Activity, phytotoxicity rating (0-100), CASOB: 80
[5]; 250 g ai/ha
  Pre-emerge Herbicidal Activity, phytotoxicity rating (0-100), CASOB: 100
[6]; 63 g ai/ha
  Pre-emerge Herbicidal Activity, phytotoxicity rating (0-100), ABUTH: 100
[6]; 250 g ai/ha
  Pre-emerge Herbicidal Activity, phytotoxicity rating (0-100), ABUTH: 100
[7]; 63 g ai/ha
  Pre-emerge Herbicidal Activity, phytotoxicity rating (0-100), ECHCG: 50
[7]; 250 g ai/ha
  Pre-emerge Herbicidal Activity, phytotoxicity rating (0-100), ECHCG: 100
[8]; 63 g ai/ha
  Pre-emerge Herbicidal Activity, phytotoxicity rating (0-100), SETVI: 95
[8]; 250 g ai/ha
  Pre-emerge Herbicidal Activity, phytotoxicity rating (0-100), SETVI: 100
[9]; 63 g ai/ha
  Pre-emerge Herbicidal Activity, phytotoxicity rating (0-100), DIGSA: 70
[9]; 250 g ai/ha
  Pre-emerge Herbicidal Activity, phytotoxicity rating (0-100), DIGSA: 100
[10]; 63 g ai/ha
  Pre-emerge phytotoxicity rating (0-100), crop damage, RICE: 50
[10]; 250 g ai/ha
  Pre-emerge phytotoxicity rating (0-100), crop damage, RICE: 90
[11]; 63 g ai/ha
  Pre-emerge phytotoxicity rating (0-100), crop damage, CORN: 35
[11]; 250 g ai/ha
  Pre-emerge phytotoxicity rating (0-100), crop damage, CORN: 95
[12]; 63 g ai/ha
  phytotoxicity rating AMBEL: 50
[12]; 250 g ai/ha
  phytotoxicity rating AMBEL: 95
[13]; 63 g ai/ha
  phytotoxicity rating SORHA: 0
[13]; 250 g ai/ha
  phytotoxicity rating SORHA: 70
[14]; 63 g ai/ha
  phytotoxicity rating AMARE: 95
[14]; 250 g ai/ha
  phytotoxicity rating AMARE: 100
[15]; 63 g ai/ha
  phytotoxicity rating IPOHE: 100
[15]; 250 g ai/ha
  phytotoxicity rating IPOHE: 100
[16]; 63 g ai/ha
  phytotoxicity rating CHEAL: 95
[16]; 250 g ai/ha
  phytotoxicity rating CHEAL: 100
[17]; 63 g ai/ha
  phytotoxicity rating CASOB: 60
[17]; 250 g ai/ha
  phytotoxicity rating CASOB: 95
[18]; 63 g ai/ha
  phytotoxicity rating ABUTH: 100
[18]; 250 g ai/ha
  phytotoxicity rating ABUTH: 100
[19]; 63 g ai/ha
  phytotoxicity rating ECHCG: 0
[19]; 250 g ai/ha
  phytotoxicity rating ECHCG: 30
[20]; 63 g ai/ha
  phytotoxicity rating SETVI: 20
[20]; 250 g ai/ha
  phytotoxicity rating SETVI: 30
[21]; 63 g ai/ha
  phytotoxicity rating DIGSA: 0
[21]; 250 g ai/ha
  phytotoxicity rating DIGSA: 20
[22]; 63 g ai/ha
  Pre-emerge Herbicidal Activity, phytotoxicity rating (0-100), AMARE: 100
[22]; 250 g ai/ha
  Pre-emerge Herbicidal Activity, phytotoxicity rating (0-100), AMARE: 100
[23]; 63 g ai/ha
  phytotoxicity rating RICE: 10
[23]; 250 g ai/ha
  phytotoxicity rating RICE: 70
[24]; 63 g ai/ha
  phytotoxicity rating CORN: 15
[24]; 250 g ai/ha
  phytotoxicity rating CORN: 80

## COc1c(Cl)cc(F)c(-n2c(=O)cc(C(F)(F)F)n(N)c2=O)c1NC(=O)c1ccc(F)cc1F [2-44]
[1]; 63 g ai/ha
  Pre-emerge Herbicidal Activity, phytotoxicity rating (0-100), AMBEL: 100
[1]; 250 g ai/ha
  Pre-emerge Herbicidal Activity, phytotoxicity rating (0-100), AMBEL: 100
[2]; 63 g ai/ha
  Pre-emerge Herbicidal Activity, phytotoxicity rating (0-100), SORHA: 50
[2]; 250 g ai/ha
  Pre-emerge Herbicidal Activity, phytotoxicity rating (0-100), SORHA: 95
[3]; 63 g ai/ha
  Pre-emerge Herbicidal Activity, phytotoxicity rating (0-100), IPOHE: 90
[3]; 250 g ai/ha
  Pre-emerge Herbicidal Activity, phytotoxicity rating (0-100), IPOHE: 100
[4]; 63 g ai/ha
  Pre-emerge Herbicidal Activity, phytotoxicity rating (0-100), CHEAL: 100
[4]; 250 g ai/ha
  Pre-emerge Herbicidal Activity, phytotoxicity rating (0-100), CHEAL: 100
[5]; 63 g ai/ha
  Pre-emerge Herbicidal Activity, phytotoxicity rating (0-100), CASOB: 60
[5]; 250 g ai/ha
  Pre-emerge Herbicidal Activity, phytotoxicity rating (0-100), CASOB: 100
[6]; 63 g ai/ha
  Pre-emerge Herbicidal Activity, phytotoxicity rating (0-100), ABUTH: 100
[6]; 250 g ai/ha
  Pre-emerge Herbicidal Activity, phytotoxicity rating (0-100), ABUTH: 100
[7]; 63 g ai/ha
  Pre-emerge Herbicidal Activity, phytotoxicity rating (0-100), ECHCG: 30
[7]; 250 g ai/ha
  Pre-emerge Herbicidal Activity, phytotoxicity rating (0-100), ECHCG: 99
[8]; 63 g ai/ha
  Pre-emerge Herbicidal Activity, phytotoxicity rating (0-100), SETVI: 90
[8]; 250 g ai/ha
  Pre-emerge Herbicidal Activity, phytotoxicity rating (0-100), SETVI: 100
[9]; 63 g ai/ha
  Pre-emerge Herbicidal Activity, phytotoxicity rating (0-100), DIGSA: 60
[9]; 250 g ai/ha
  Pre-emerge Herbicidal Activity, phytotoxicity rating (0-100), DIGSA: 100
[10]; 63 g ai/ha
  Pre-emerge phytotoxicity rating (0-100), crop damage, RICE: 20
[10]; 250 g ai/ha
  Pre-emerge phytotoxicity rating (0-100), crop damage, RICE: 80
[11]; 63 g ai/ha
  Pre-emerge phytotoxicity rating (0-100), crop damage, CORN: 10
[11]; 250 g ai/ha
  Pre-emerge phytotoxicity rating (0-100), crop damage, CORN: 70
[12]; 63 g ai/ha
  phytotoxicity rating AMBEL: 60
[12]; 250 g ai/ha
  phytotoxicity rating AMBEL: 90
[13]; 63 g ai/ha
  phytotoxicity rating SORHA: 0
[13]; 250 g ai/ha
  phytotoxicity rating SORHA: 30
[14]; 63 g ai/ha
  phytotoxicity rating AMARE: 50
[14]; 250 g ai/ha
  phytotoxicity rating AMARE: 90
[15]; 63 g ai/ha
  phytotoxicity rating IPOHE: 50
[15]; 250 g ai/ha
  phytotoxicity rating IPOHE: 100
[16]; 63 g ai/ha
  phytotoxicity rating CHEAL: 60
[16]; 250 g ai/ha
  phytotoxicity rating CHEAL: 90
[17]; 63 g ai/ha
  phytotoxicity rating CASOB: 20
[17]; 250 g ai/ha
  phytotoxicity rating CASOB: 70
[18]; 63 g ai/ha
  phytotoxicity rating ABUTH: 100
[18]; 250 g ai/ha
  phytotoxicity rating ABUTH: 100
[19]; 63 g ai/ha
  phytotoxicity rating ECHCG: 0
[19]; 250 g ai/ha
  phytotoxicity rating ECHCG: 10
[20]; 63 g ai/ha
  phytotoxicity rating SETVI: 0
[20]; 250 g ai/ha
  phytotoxicity rating SETVI: 50
[21]; 63 g ai/ha
  phytotoxicity rating DIGSA: 0
[21]; 250 g ai/ha
  phytotoxicity rating DIGSA: 10
[22]; 63 g ai/ha
  Pre-emerge Herbicidal Activity, phytotoxicity rating (0-100), AMARE: 100
[22]; 250 g ai/ha
  Pre-emerge Herbicidal Activity, phytotoxicity rating (0-100), AMARE: 100
[23]; 63 g ai/ha
  phytotoxicity rating RICE: 0
[23]; 250 g ai/ha
  phytotoxicity rating RICE: 10
[24]; 63 g ai/ha
  phytotoxicity rating CORN: 0
[24]; 250 g ai/ha
  phytotoxicity rating CORN: 20
